Measured values reported in ChEMBL document CHEMBL1201862, “PubChem BioAssay data set” (2004).
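Tested at 5 concentrations; 48 h exposure; 96-well plates; endpoints linearly interpolated, else capped at highest concentration. Here, GI50 denotes the concentration required for 50% inhibition of growth.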 Active and inactive are the calls of the source. Rule as the data show it: active = GI50 up to about 1.1 µM and inactive = higher.

What was measured:
Test in all cases: NCI-60 cell line screen, 48 h
SNB-19 = system: SNB-19
PC-3 = system: PC-3
IGROV-1 = system: IGROV-1
HCC 2998 = system: HCC 2998
HOP-92 = system: HOP-92
HOP-62 = system: HOP-62
786-0 = system: 786-0
UACC-62 = system: UACC-62
SF-539 = system: SF-539
MDA-MB-435 = system: MDA-MB-435
NCI-H23 = system: NCI-H23
SR = system: SR
SK-MEL-28 = system: SK-MEL-28
NCI-H460 = system: NCI-H460
CCRF-CEM = system: CCRF-CEM
M14 = system: M14
OVCAR-5 = system: OVCAR-5
HL-60 = system: HL-60
UO-31 = system: UO-31
LOX IMVI = system: LOX IMVI
EKVX = system: EKVX
MOLT-4 = system: MOLT-4
A549 = system: A549
CAKI-1 = system: CAKI-1
SK-MEL-2 = system: SK-MEL-2
RXF 393 = system: RXF 393
TK-10 = system: TK-10
HCT-15 = system: HCT-15
COLO 205 = system: COLO 205
Hs-578T = system: Hs-578T
OVCAR-8 = system: OVCAR-8
SF-268 = system: SF-268
MDA-N = system: MDA-N
HCT-116 = system: HCT-116
NCI/ADR-RES = system: NCI/ADR-RES
HT-29 = system: HT-29
T47D = system: T47D
OVCAR-4 = system: OVCAR-4
SK-MEL-5 = system: SK-MEL-5
MDA-MB-231 = system: MDA-MB-231
A498 = system: A498
NCI-H522 = system: NCI-H522
SN12C = system: SN12C
U-251 = system: U-251
BT-549 = system: BT-549
RPMI-8226 = system: RPMI-8226
OVCAR-3 = system: OVCAR-3
SW-620 = system: SW-620
UACC-257 = system: UACC-257
K562 = system: K562
DU-145 = system: DU-145
KM12 = system: KM12
ACHN = system: ACHN
SNB-75 = system: SNB-75
MCF7 = system: MCF7
SF-295 = system: SF-295
Malme-3M = system: Malme-3M
NCI-H226 = system: NCI-H226
SK-OV-3 = system: SK-OV-3

Measured: GI50

CC1=NN(C(=O)CC(=O)Nc2ccccc2)C(=O)C1/N=N/c1ccc(C(=O)O)cc1 (stereo unspecified)
> 100 µM: HCT-15
inactive: SNB-19 80.5 µM | PC-3 > 100 µM | IGROV-1 > 100 µM | HCC 2998 > 100 µM | HOP-92 22.1 µM | HOP-62 75.9 µM | 786-0 > 100 µM | UACC-62 > 100 µM | SF-539 84.7 µM | MDA-MB-435 > 100 µM | NCI-H23 > 100 µM | SR 50.6 µM | SK-MEL-28 > 100 µM | NCI-H460 > 100 µM | CCRF-CEM > 100 µM | M14 > 100 µM | OVCAR-5 > 100 µM | HL-60 > 100 µM | UO-31 > 100 µM | LOX IMVI > 100 µM | EKVX > 100 µM | MOLT-4 > 100 µM | A549 > 100 µM | CAKI-1 > 100 µM | SK-MEL-2 > 100 µM | RXF 393 > 100 µM | TK-10 > 100 µM | COLO 205 > 100 µM | Hs-578T 78.7 µM | OVCAR-8 > 100 µM | SF-268 77.8 µM | MDA-N > 100 µM | HCT-116 > 100 µM | NCI/ADR-RES > 100 µM | HT-29 > 100 µM | T47D 62.7 µM | OVCAR-4 > 100 µM | SK-MEL-5 > 100 µM | MDA-MB-231 > 100 µM | A498 > 100 µM | NCI-H522 > 100 µM | SN12C > 100 µM | U-251 97.3 µM | BT-549 > 100 µM | RPMI-8226 > 100 µM | OVCAR-3 > 100 µM | SW-620 > 100 µM | UACC-257 > 100 µM | K562 > 100 µM | DU-145 > 100 µM | KM12 > 100 µM | ACHN > 100 µM | SNB-75 > 100 µM | MCF7 > 100 µM | SF-295 > 100 µM | Malme-3M > 100 µM

N#CC1=C(S)N(C2OC(CO)C(O)C(O)C2O)C(c2ccccc2)=CC1c1ccco1 (stereo unspecified)
inactive: SNB-19 69.5 µM | PC-3 47.4 µM | IGROV-1 > 100 µM | HCC 2998 28.4 µM | HOP-92 32.6 µM | HOP-62 44.6 µM | 786-0 38 µM | UACC-62 16.3 µM | SF-539 35.2 µM | MDA-MB-435 > 100 µM | NCI-H23 59 µM | SR 36.9 µM | SK-MEL-28 91.6 µM | NCI-H226 > 100 µM | NCI-H460 28.2 µM | CCRF-CEM 88.9 µM | M14 50.5 µM | OVCAR-5 > 100 µM | HL-60 > 100 µM | UO-31 82.2 µM | LOX IMVI 23.2 µM | MOLT-4 35.2 µM | A549 46.1 µM | CAKI-1 38.8 µM | SK-MEL-2 59 µM | RXF 393 44 µM | TK-10 44.1 µM | COLO 205 > 10 µM | Hs-578T 56.5 µM | OVCAR-8 40.4 µM | SF-268 > 100 µM | MDA-N 93.3 µM | HCT-116 21.3 µM | NCI/ADR-RES > 100 µM | HT-29 > 100 µM | T47D 4.36 µM | OVCAR-4 > 100 µM | SK-MEL-5 26.9 µM | MDA-MB-231 54.5 µM | A498 71.6 µM | NCI-H522 35.7 µM | SN12C 40.5 µM | U-251 19.8 µM | BT-549 > 100 µM | RPMI-8226 23.2 µM | OVCAR-3 > 100 µM | UACC-257 97.1 µM | K562 42.7 µM | DU-145 > 100 µM | KM12 41.9 µM | ACHN > 10 µM | SNB-75 16.6 µM | MCF7 62.2 µM | SF-295 24.6 µM | Malme-3M 81.7 µM
68.9 µM: HCT-15

Cc1ccc(C2=CC(=O)/C(=C\C(=O)c3ccc(Br)cc3)O2)c(C)c1
12.2 µM: HCT-15
inactive: SNB-19 18.7 µM | PC-3 5.35 µM | IGROV-1 18.4 µM | HCC 2998 12.1 µM | HOP-92 6.4 µM | HOP-62 42.4 µM | 786-0 8.34 µM | UACC-62 9.48 µM | SF-539 31.4 µM | MDA-MB-435 13.6 µM | NCI-H23 26.6 µM | SR 2.36 µM | SK-MEL-28 17.2 µM | NCI-H226 10.9 µM | NCI-H460 26.5 µM | CCRF-CEM 2.69 µM | M14 11.6 µM | OVCAR-5 23.7 µM | HL-60 3.92 µM | UO-31 9.02 µM | LOX IMVI 3.78 µM | EKVX 28.6 µM | MOLT-4 3.52 µM | A549 18.7 µM | CAKI-1 3.04 µM | SK-MEL-2 49.1 µM | RXF 393 4.58 µM | TK-10 3.83 µM | COLO 205 3.85 µM | Hs-578T 18.1 µM | OVCAR-8 6.58 µM | SF-268 16.2 µM | MDA-N 6.11 µM | HCT-116 7.64 µM | NCI/ADR-RES 7.91 µM | HT-29 7.89 µM | T47D 8.79 µM | OVCAR-4 9.42 µM | SK-MEL-5 14.5 µM | MDA-MB-231 9.31 µM | SK-OV-3 7.74 µM | A498 19.9 µM | NCI-H522 1.69 µM | SN12C 13.2 µM | U-251 18 µM | BT-549 7.03 µM | RPMI-8226 2.87 µM | OVCAR-3 5.3 µM | UACC-257 16.9 µM | K562 3.4 µM | DU-145 30.4 µM | KM12 20.4 µM | ACHN 4.57 µM | SNB-75 7.85 µM | MCF7 5.33 µM | SF-295 26 µM | Malme-3M 10.5 µM
